From patent US11174252B2, “Heterocyclic compounds as kinase inhibitors” (priority 2018, dated 2021)
Like-named read-outs stand apart in the source and are kept apart here.

Columns and labels:
CDK1 (cyclin B) = CDK1 (cyclin B) (Homo sapiens (Human), UniProt P06493); assay: Z'-LYTE kinase assay; type: biochemical
From the text: The following equations were used for Z′-LYTE™ Screening Assay Data Analysis.

MCF-7 = assay: Cancer cell proliferation assay, single agent; type: cell-based; details: Homo sapiens
CDK7 (cyclin H) = CDK7 (cyclin H) (Homo sapiens (Human), UniProt P50613); assay: Adapta Assay; type: biochemical
From the text: The following equations were used for Adapta™ Assay Data Analysis.

FMS kinase = FMS kinase (Homo sapiens (Human), UniProt P07333); assay: LanthaScreen kinase assay (ATP, fluorescent-PolyGT substrate, TR-FRET); type: biochemical
CDK5 (p25) = CDK5 (p25) (Homo sapiens (Human), UniProt Q00535); assay: Z'-LYTE kinase assay; type: biochemical
From the text: The following equations were used for Z'-LYTETM Screening Assay Data Analysis.

CDK2 (cyclin A) = CDK2 (cyclin A) (Homo sapiens (Human), UniProt P24941); assay: Z'-LYTE kinase assay; type: biochemical
Method: IC50 values of compounds against CDK2 (cyclin A) were determined by Z'-LYTETM. […] The following equations were used for Z'-LYTETM Screening Assay Data Analysis.

DU4475 = assay: Cancer cell proliferation assay, single agent; type: cell-based; details: Homo sapiens
PI3Kδ kinase = PI3Kδ kinase (Homo sapiens (Human), UniProt O00329); assay: PI3Kδ kinase ADP-Glo assay (Reaction Biology Corporation); details: read-out: PI3Kδ IC50
CDK6 = CDK6 (Homo sapiens (Human), UniProt Q00534); assay: biochemical; type: biochemical
CDK9 (cyclin K) = CDK9 (cyclin K) (Homo sapiens (Human), UniProt P50750); assay: LanthaScreen Eu Kinase Binding Assay; details: read-out: CDK9/K IC50
CDK4 = CDK4 (Homo sapiens (Human), UniProt P11802); assay: In vitro kinase inhibition, luminescence (ADP-Glo) with retinoblastoma substrate; type: biochemical
A549 = assay: Cancer cell proliferation assay, single agent; type: cell-based; details: Homo sapiens; A549 cells; treated for 24-168 hours; read-out: IC50 (nM) A549
BT-549 = assay: Cancer cell proliferation assay, single agent; type: cell-based; details: Homo sapiens; BT-549 cells; treated for 24-168 hours; read-out: IC50 (nM) BT-549
[1] = MCF7, MCF-7 cells, treated for 24-168 hours, read-out: IC50 (nM) MCF-7
[2] = DU-4475, DU4475 cells, treated for 24-168 hours, read-out: IC50 (nM) DU4475
[3] = DU-4475, read-out: IC50 (nM) DU4475
[4] = MCF7, read-out: IC50 (nM) MCF-7

CDK1 (cyclin B), sequence (P06493 whole entry): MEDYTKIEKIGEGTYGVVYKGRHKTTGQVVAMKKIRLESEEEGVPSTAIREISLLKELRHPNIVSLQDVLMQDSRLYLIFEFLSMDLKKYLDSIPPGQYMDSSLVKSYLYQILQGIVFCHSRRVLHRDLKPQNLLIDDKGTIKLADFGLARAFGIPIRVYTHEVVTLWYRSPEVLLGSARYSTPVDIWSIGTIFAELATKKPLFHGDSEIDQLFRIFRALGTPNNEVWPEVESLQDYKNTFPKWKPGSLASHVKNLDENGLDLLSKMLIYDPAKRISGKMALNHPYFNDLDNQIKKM
CDK1 (cyclin B), sequence (P14635 whole entry partner): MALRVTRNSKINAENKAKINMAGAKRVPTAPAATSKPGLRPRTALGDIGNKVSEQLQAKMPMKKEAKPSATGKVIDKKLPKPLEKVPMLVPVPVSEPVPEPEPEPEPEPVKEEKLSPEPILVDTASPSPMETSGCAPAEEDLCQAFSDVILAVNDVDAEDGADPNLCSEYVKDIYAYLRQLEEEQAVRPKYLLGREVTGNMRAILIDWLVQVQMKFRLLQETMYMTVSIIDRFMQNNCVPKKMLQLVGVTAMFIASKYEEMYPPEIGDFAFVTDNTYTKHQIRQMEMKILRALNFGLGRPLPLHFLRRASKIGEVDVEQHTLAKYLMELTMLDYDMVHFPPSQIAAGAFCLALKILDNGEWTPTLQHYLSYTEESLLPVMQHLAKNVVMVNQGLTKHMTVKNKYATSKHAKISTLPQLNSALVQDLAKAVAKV
CDK9 (cyclin K), sequence (P50750 whole entry): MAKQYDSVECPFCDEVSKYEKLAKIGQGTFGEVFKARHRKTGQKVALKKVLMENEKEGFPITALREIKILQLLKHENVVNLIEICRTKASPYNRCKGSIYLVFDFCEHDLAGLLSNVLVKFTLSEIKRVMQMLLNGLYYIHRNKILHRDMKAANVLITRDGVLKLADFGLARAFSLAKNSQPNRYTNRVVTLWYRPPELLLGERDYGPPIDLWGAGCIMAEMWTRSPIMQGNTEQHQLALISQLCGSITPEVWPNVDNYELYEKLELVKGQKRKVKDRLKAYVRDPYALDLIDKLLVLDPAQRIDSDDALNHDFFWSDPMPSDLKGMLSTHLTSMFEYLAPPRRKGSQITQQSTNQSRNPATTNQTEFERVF
CDK9 (cyclin K), sequence (O75909 whole entry partner): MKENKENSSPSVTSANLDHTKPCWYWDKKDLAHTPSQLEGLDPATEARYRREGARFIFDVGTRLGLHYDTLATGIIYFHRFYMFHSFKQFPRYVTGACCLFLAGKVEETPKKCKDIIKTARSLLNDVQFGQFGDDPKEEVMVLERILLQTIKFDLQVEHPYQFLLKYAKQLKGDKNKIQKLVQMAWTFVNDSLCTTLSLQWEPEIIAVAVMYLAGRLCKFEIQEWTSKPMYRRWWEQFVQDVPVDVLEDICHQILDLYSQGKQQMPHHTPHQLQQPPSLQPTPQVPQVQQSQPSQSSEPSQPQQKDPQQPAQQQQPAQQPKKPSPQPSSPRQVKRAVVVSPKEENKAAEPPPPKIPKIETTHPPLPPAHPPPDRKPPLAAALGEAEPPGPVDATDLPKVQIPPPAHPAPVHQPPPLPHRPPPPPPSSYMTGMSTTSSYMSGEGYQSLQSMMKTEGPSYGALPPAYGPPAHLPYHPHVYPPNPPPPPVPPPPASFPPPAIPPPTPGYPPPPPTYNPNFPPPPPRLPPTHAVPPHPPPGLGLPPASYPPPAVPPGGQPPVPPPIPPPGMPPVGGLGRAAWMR
CDK7 (cyclin H), sequence (P50613 whole entry): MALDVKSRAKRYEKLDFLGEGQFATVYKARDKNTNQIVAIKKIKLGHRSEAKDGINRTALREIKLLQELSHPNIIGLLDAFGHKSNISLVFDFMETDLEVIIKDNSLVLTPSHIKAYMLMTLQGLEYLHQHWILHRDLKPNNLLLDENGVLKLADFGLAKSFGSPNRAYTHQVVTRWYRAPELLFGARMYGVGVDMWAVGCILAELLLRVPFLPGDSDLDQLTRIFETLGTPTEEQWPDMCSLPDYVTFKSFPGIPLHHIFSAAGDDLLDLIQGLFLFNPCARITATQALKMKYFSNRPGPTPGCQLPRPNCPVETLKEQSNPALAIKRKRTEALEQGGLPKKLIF
CDK7 (cyclin H), sequence (P51946 whole entry partner): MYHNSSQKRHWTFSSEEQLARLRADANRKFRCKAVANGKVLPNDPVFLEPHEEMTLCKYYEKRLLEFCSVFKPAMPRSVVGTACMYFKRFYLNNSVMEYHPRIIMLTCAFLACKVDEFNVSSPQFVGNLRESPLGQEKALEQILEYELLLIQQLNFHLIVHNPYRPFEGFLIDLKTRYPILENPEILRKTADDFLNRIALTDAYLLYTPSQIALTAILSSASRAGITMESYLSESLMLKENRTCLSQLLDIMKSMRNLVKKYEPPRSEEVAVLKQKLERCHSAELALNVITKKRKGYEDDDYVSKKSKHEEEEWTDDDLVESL
CDK7 (cyclin H), sequence (P51948 whole entry partner): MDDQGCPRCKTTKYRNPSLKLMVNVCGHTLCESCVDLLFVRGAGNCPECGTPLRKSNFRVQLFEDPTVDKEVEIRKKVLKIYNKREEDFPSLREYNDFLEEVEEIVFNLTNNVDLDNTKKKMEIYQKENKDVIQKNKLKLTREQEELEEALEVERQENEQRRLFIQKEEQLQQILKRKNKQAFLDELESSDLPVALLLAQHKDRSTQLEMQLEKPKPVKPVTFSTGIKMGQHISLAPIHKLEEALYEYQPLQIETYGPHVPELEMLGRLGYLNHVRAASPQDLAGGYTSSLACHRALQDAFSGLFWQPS
PI3Kδ kinase, sequence (O00329 whole entry): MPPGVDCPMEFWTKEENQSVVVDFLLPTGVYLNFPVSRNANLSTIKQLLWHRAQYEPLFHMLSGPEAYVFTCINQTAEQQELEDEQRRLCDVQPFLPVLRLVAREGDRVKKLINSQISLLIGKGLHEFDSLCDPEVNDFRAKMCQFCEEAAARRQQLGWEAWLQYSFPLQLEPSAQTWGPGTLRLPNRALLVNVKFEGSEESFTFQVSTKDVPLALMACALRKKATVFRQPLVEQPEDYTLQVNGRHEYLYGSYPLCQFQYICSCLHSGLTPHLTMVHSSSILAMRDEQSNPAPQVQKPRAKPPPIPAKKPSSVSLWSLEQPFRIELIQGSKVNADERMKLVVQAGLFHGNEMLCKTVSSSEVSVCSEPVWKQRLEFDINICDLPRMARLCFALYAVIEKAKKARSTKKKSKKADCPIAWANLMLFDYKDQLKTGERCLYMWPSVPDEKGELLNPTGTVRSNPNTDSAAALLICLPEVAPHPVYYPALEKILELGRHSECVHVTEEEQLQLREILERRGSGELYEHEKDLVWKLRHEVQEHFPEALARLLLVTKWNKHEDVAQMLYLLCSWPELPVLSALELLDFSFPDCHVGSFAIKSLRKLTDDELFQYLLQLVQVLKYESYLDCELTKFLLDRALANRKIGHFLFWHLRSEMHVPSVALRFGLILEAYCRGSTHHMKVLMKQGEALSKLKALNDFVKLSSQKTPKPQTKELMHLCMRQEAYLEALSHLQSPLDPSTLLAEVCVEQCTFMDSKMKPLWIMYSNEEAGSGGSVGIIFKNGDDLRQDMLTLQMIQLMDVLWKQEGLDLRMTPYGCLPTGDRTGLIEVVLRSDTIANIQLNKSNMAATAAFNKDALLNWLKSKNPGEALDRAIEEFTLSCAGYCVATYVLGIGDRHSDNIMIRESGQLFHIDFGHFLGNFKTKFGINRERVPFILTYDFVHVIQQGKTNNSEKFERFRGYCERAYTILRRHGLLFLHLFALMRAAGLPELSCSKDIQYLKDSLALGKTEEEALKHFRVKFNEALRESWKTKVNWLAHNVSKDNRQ
PI3Kδ kinase, sequence (P27986 whole entry partner): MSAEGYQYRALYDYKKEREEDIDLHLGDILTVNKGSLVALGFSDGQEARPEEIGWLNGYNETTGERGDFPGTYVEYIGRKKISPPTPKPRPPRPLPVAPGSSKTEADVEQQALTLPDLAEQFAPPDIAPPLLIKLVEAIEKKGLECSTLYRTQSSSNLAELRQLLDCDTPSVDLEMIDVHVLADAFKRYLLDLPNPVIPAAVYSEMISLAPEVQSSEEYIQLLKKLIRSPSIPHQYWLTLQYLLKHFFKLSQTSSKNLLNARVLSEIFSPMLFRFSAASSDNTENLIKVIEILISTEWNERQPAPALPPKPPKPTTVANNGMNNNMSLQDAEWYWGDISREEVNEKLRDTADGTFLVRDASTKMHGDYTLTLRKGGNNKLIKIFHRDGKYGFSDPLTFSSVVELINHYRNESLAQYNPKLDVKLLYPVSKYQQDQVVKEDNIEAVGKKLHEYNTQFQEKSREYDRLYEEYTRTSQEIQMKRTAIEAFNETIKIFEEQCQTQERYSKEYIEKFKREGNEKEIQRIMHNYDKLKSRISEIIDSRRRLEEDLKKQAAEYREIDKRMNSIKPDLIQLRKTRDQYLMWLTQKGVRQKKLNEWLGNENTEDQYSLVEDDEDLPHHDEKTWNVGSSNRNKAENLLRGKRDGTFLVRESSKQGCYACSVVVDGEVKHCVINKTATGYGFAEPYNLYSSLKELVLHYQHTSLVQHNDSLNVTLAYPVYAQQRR
CDK5 (p25), sequence (Q00535 whole entry): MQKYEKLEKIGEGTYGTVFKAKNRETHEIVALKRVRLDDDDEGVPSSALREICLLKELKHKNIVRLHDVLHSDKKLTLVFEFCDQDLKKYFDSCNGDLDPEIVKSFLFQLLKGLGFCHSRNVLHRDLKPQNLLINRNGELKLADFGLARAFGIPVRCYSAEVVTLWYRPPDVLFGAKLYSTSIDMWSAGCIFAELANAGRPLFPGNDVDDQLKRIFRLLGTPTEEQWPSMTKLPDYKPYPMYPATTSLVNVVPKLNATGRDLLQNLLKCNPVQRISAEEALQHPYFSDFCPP
CDK5 (p25), sequence (Q15078 99-307 partner): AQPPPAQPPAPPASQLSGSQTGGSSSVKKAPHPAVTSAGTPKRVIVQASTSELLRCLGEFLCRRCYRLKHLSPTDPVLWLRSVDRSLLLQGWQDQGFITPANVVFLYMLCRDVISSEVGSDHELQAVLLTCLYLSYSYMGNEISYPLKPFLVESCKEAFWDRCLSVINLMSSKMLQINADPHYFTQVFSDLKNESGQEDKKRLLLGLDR

IC50 (CDK1 (cyclin B)) | IC50 (MCF-7; [1]) | IC50 (CDK7 (cyclin H)) | IC50 (FMS kinase) | IC50 (CDK5 (p25)) | IC50 (CDK2 (cyclin A)) | IC50 (DU4475; [2]) | IC50 (PI3Kδ kinase) | IC50 (CDK6) | IC50 (CDK9 (cyclin K)) | IC50 (CDK4) | IC50 (BT-549) | Structure (SMILES) | IC50 (DU4475; [3]) | IC50 (MCF-7; [4]) | IC50 (A549)
9 nM | 45 nM | 85 nM | 3 nM | 7.7 nM | 3 nM |  |  |  |  |  |  | CC(C)N1CCOc2c(F)cc(-c3nc(Nc4ccn(C5CCNCC5)c(=O)c4)ncc3F)cc21 [Compound 437, 4-((5-fluoro-4-(8-fluoro-4-isopropyl-3,4-dihydro-2H-benzo[b][1,4]oxazin-6-yl)pyrimidin-2-yl)amino)-1-(piperidin-4-yl)pyridin-2(1H)-one] |  |  | 
69 nM | 85 nM |  | 426 nM |  | 24 nM | 345 nM | > 20000 nM |  |  |  |  | CC(C)N1CCOc2c(F)cc(-c3nc(Nc4ccc5c(n4)CCNC5)ncc3F)cc21 [Compound 481, N-(5-fluoro-4-(8-fluoro-4-isopropyl-3,4-dihydro-2H-benzo[b][1,4]oxazin-6-yl)pyrimidin-2-yl)-5,6,7,8-tetrahydro-1,6-naphthyridin-2-amine] |  |  | 
238 nM | 300 nM | > 10000 nM | 1680 nM |  | 36 nM | 230 nM | > 50000 nM | 1.6 nM | 243 nM | 1.1 nM |  | CC(C)N1CCOc2c(F)cc(-c3nc(Nc4ccc(N5CCC(O)CC5)cn4)ncc3F)cc21 [Compound 447, 1-(6-((5-fluoro-4-(8-fluoro-4-isopropyl-3,4-dihydro-2H-benzo[b][1,4]oxazin-6-yl)pyrimidin-2-yl)amino)pyridin-3-yl)piperidin-4-ol] |  |  | 
< 1 nM | < 4 nM |  | 4 nM |  | < 1 nM |  | 19500 nM | 3.5 nM |  | 4 nM |  | CC(C)N1CCOc2c(F)cc(-c3nc(Nc4ccc5c(c4)CCN(C(=O)CN(C)C)C5)ncc3F)cc21 [Compound 456, 2-(dimethylamino)-1-(6-((5-fluoro-4-(8-fluoro-4-isopropyl-3,4-dihydro-2H-benzo[b][1,4]oxazin-6-yl)pyrimidin-2-yl)amino)-3,4-dihydroisoquinolin-2(1H)-yl)ethan-1-one] |  |  | 
3 nM | 20 nM | 163 nM | 40 nM |  |  | 45 nM |  |  |  |  |  | CC(C)N1CCOc2c(F)cc(-c3nc(Nc4ccc(N5CCC(N(C)C)CC5)nc4)ncc3F)cc21 [Compound 38, N-(6-(4-(dimethylamino)piperidin-1-yl)pyridin-3-yl)-5-fluoro-4-(8-fluoro-4-isopropyl-3,4-dihydro-2H-benzo[b][1,4]oxazin-6-yl)pyrimidin-2-amine] |  |  | 
679 nM | 850 nM | > 10000 nM | 1120 nM |  | 68 nM | 385 nM | 21800 nM | 8.8 nM | 280 nM | 3.9 nM |  | CC(C)N1CCOc2c(F)cc(-c3nc(Nc4ccc(N5CCOCC5)cn4)ncc3F)cc21 [Compound 446, 5-fluoro-4-(8-fluoro-4-isopropyl-3,4-dihydro-2H-benzo[b][1,4]oxazin-6-yl)-N-(5-morpholinopyridin-2-yl)pyrimidin-2-amine] |  |  | 
6.7 nM | 25 nM | 145 nM | 5 nM | 3.6 nM | 3.4 nM | 46 nM | 6100 nM |  | 5 nM |  | < 1110 nM | CC(C)N1CCOc2c(F)cc(-c3nc(Nc4ccc(N5CCC(N(C)C)CC5)c(F)c4)ncc3F)cc21 [Compound 25, N-(4-(4-(dimethylamino)piperidin-1-yl)-3-fluorophenyl)-5-fluoro-4-(8-fluoro-4-isopropyl-3,4-dihydro-2H-benzo[b][1,4]oxazin-6-yl)pyrimidin-2-amine] |  |  | 
73 nM | 125 nM | 1160 nM | 353 nM | 27 nM | 7 nM | 503 nM | > 50000 nM | 1 nM | 41 nM | 2 nM |  | CC(C)N1CCOc2c(F)cc(-c3nc(Nc4ccc(C5CCN(C)CC5)cn4)ncc3F)cc21 [Compound 442, 5-fluoro-4-(8-fluoro-4-isopropyl-3,4-dihydro-2H-benzo[b][1,4]oxazin-6-yl)-N-(5-(1-methylpiperidin-4-yl)pyridin-2-yl)pyrimidin-2-amine] |  |  | 465 nM
223 nM | 170 nM |  |  |  | 155 nM | 465 nM |  | 3 nM |  | 1 nM |  | CC(C)N1CCOc2c(F)cc(-c3nc(Nc4ccc(C5CCN(C)C5)cn4)ncc3F)cc21 (stereo not drawn) [Compound 498, 5-fluoro-4-(8-fluoro-4-isopropyl-3,4-dihydro-2H-benzo[b][1,4]oxazin-6-yl)-N-(5-(1-methylpyrrolidin-3-yl)pyridin-2-yl)pyrimidin-2-amine] |  |  | 

Further lines, the compound ahead of its results:

Structure (SMILES) | IC50 (CDK1 (cyclin B)) | IC50 (MCF-7; [1]) | IC50 (CDK7 (cyclin H)) | IC50 (FMS kinase) | IC50 (CDK5 (p25)) | IC50 (CDK2 (cyclin A)) | IC50 (DU4475; [2]) | IC50 (PI3Kδ kinase) | IC50 (CDK6) | IC50 (CDK9 (cyclin K)) | IC50 (CDK4) | IC50 (BT-549) | IC50 (DU4475; [3]) | IC50 (MCF-7; [4]) | IC50 (A549)
CC(C)CN1CCOc2c(F)cc(-c3nc(Nc4ccc5c(n4)CCNC5)ncc3F)cc21 [Compound 483, N-(5-fluoro-4-(8-fluoro-4-isobutyl-3,4-dihydro-2H-benzo[b][1,4]oxazin-6-yl)pyrimidin-2-yl)-5,6,7,8-tetrahydro-1,6-naphthyridin-2-amine] | 181 nM |  |  | > 5000 nM |  | 44 nM |  | > 50000 nM | 20 nM |  | 25 nM |  | 665 nM | 460 nM | 
CCN1CCN(Cc2ccc(Nc3ncc(F)c(-c4cc(F)c5c(c4)N(C(C)C)CCO5)n3)nc2)CC1 [Compound 4, N-(5-((4-ethylpiperazin-1-yl)methyl)pyridin-2-yl)-5-fluoro-4-(8-fluoro-4-isopropyl-3,4-dihydro-2H-benzo[b][1,4]oxazin-6-yl)pyrimidin-2-amine] | 130 nM |  |  | 566 nM |  | 12 nM |  | > 5000 nM |  |  |  |  |  | 110 nM | 
Fc1cnc(Nc2ccc(N3CCCNCC3)cn2)nc1-c1cc(F)c2c(c1)N(C1CCCC1)CCO2 [Compound 478, N-(5-(1,4-diazepan-1-yl)pyridin-2-yl)-4-(4-cyclopentyl-8-fluoro-3,4-dihydro-2H-benzo[b][1,4]oxazin-6-yl)-5-fluoropyrimidin-2-amine] | 453 nM |  |  | 2220 nM |  | 97 nM |  | 33700 nM | 27 nM |  | 9 nM |  | 1680 nM | 665 nM | 
CC(C)N1CCOc2c(F)cc(-c3nc(Nc4ccc(N5CCCNCC5)cn4)ncc3F)cc21 [Compound 477, N-(5-(1,4-diazepan-1-yl)pyridin-2-yl)-5-fluoro-4-(8-fluoro-4-isopropyl-3,4-dihydro-2H-benzo[b][1,4]oxazin-6-yl)pyrimidin-2-amine] | 158 nM |  |  | 752 nM |  | 25 nM |  | > 50000 nM |  |  |  |  | 1100 nM | 280 nM | 
CC(C)N1CCOc2c(F)cc(-c3nc(Nc4ccc(C5CCN(C)CC5)nc4)ncc3F)cc21 [Compound 33, 5-fluoro-4-(8-fluoro-4-isopropyl-3,4-dihydro-2H-benzo[b][1,4]oxazin-6-yl)-N-(6-(1-methylpiperidin-4-yl)pyridin-3-yl)pyrimidin-2-amine] | 3 nM | < 14 nM | 54 nM | 48 nM | 1 nM | 2 nM |  |  | 1.5 nM | 2 nM | 1.5 nM |  | 40 nM |  | 
CC(C)N1CCOc2c(F)cc(-c3nc(Nc4ccc(N5CCC(N(C)C)CC5)cn4)ncc3F)cc21 [Compound 436, N-(5-(4-(dimethylamino)piperidin-1-yl)pyridin-2-yl)-5-fluoro-4-(8-fluoro-4-isopropyl-3,4-dihydro-2H-benzo[b][1,4]oxazin-6-yl)pyrimidin-2-amine] | 82 nM | 165 nM | 2360 nM | > 5000 nM | 38 nM | 8 nM | 383 nM |  |  | 73 nM |  |  |  |  | 390 nM
Fc1cnc(Nc2ccc3c(n2)CCNC3)nc1-c1cc(F)c2c(c1)N(C1CCC1)CCO2 [Compound 482, N-(4-(4-cyclobutyl-8-fluoro-3,4-dihydro-2H-benzo[b][1,4]oxazin-6-yl)-5-fluoropyrimidin-2-yl)-5,6,7,8-tetrahydro-1,6-naphthyridin-2-amine] | 155 nM |  |  | 1750 nM |  | 29 nM |  | > 50000 nM | 16 nM |  | 3 nM |  | 540 nM | 230 nM | 
